Measurements as given in PubChem BioAssay (NCI).
Where “and” joins values, the source holds several entries; their conditions need not be identical. Identical values can stand only once.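 Five concentrations, 48 hours, 96-well plates. The concentration for 50% growth inhibition is given as GI50. TGI marks complete inhibition of growth.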

Columns and labels:
Experiment in all cases: NCI anticancer screen, dose series, 48 h
M14 melanoma = system: M14 melanoma
HCC-2998 colon = system: HCC-2998 colon
SNB-19 CNS = system: SNB-19 CNS
LOX IMVI melanoma = system: LOX IMVI melanoma
OVCAR-5 ovarian = system: OVCAR-5 ovarian
CAKI-1 renal = system: CAKI-1 renal
DU-145 prostate = system: DU-145 prostate
SK-OV-3 ovarian = system: SK-OV-3 ovarian
EKVX NSCLC = system: EKVX NSCLC
HCT-116 colon = system: HCT-116 colon

## Nc1nc2ccc3[nH]ncc3c2c2c1CCCC2
M14 melanoma
  GI50: 1.53 µM
  TGI: 3.23 µM
HCC-2998 colon
  GI50: 1.61 µM
  TGI: 3.62 µM
SNB-19 CNS
  GI50: 2.64 µM
  TGI: 10.8 µM
LOX IMVI melanoma
  GI50: 1.29 µM
  TGI: 2.82 µM
OVCAR-5 ovarian
  GI50: 1.94 µM
  TGI: 8.91 µM
CAKI-1 renal
  GI50: 0.609 µM
  TGI: 8.24 µM
DU-145 prostate
  GI50: 2.4 µM
  TGI: 10.7 µM
SK-OV-3 ovarian
  GI50: 2.94 µM
  TGI: 14.7 µM
EKVX NSCLC
  GI50: 1.54 µM
  TGI: 5.38 µM
HCT-116 colon
  GI50: 1 µM
  TGI: 5.86 µM

## CC(=O)OCc1ccc(O)c(C=O)c1
M14 melanoma
  TGI: > 100 µM
HCC-2998 colon
  TGI: > 100 µM
SNB-19 CNS
  TGI: > 100 µM
LOX IMVI melanoma
  TGI: > 100 µM
OVCAR-5 ovarian
  TGI: > 100 µM
CAKI-1 renal
  TGI: > 100 µM
DU-145 prostate
  TGI: > 100 µM
SK-OV-3 ovarian
  TGI: > 100 µM
EKVX NSCLC
  TGI: > 100 µM
HCT-116 colon
  TGI: > 100 µM

## COc1cc(-c2csc(NC(=O)Nc3cc(C(F)(F)F)cc(C(F)(F)F)c3)n2)cc(OC)c1OC
M14 melanoma
  GI50: 2.35 µM
  TGI: 6.24 µM
HCC-2998 colon
  GI50: 3.81 µM
  TGI: 14.4 µM
SNB-19 CNS
  GI50: 3.56 µM
  TGI: 15.7 µM
LOX IMVI melanoma
  GI50: 3.04 µM
  TGI: 12.3 µM
OVCAR-5 ovarian
  GI50: 3.29 µM
  TGI: 14 µM
CAKI-1 renal
  GI50: 2.88 µM
  TGI: 12.1 µM
DU-145 prostate
  GI50: 3.6 µM
  TGI: 18.3 µM
SK-OV-3 ovarian
  GI50: 2.59 µM
  TGI: 8.57 µM
EKVX NSCLC
  GI50: 2.38 µM
  TGI: 13.9 µM
HCT-116 colon
  GI50: 2.55 µM
  TGI: 10.2 µM

## COc1c2c(c(CC=C(C)C)c3oc(=O)c(-c4ccc(O)cc4)c(O)c13)OC(C)(C)C=C2
M14 melanoma
  TGI: 73.3 µM
HCC-2998 colon
  TGI: 48.1 µM
SNB-19 CNS
  TGI: > 100 µM
LOX IMVI melanoma
  TGI: > 100 µM
OVCAR-5 ovarian
  TGI: > 100 µM
CAKI-1 renal
  TGI: > 100 µM
DU-145 prostate
  TGI: > 100 µM
EKVX NSCLC
  TGI: 95.8 µM
HCT-116 colon
  TGI: 37.5 µM

## NC(=S)N/N=C/c1ccc(O)cn1
M14 melanoma
  GI50: 16.3 µM
  TGI: 35.6 µM and 25.6 µM
SNB-19 CNS
  GI50: 29.2 µM and 8.2 µM
  TGI: 1020 µM and > 1360 µM
LOX IMVI melanoma
  GI50: 12.4 µM
OVCAR-5 ovarian
  GI50: 30.2 µM and 34.8 µM
  TGI: > 1500 µM and 928 µM
CAKI-1 renal
  GI50: 32.1 µM and 21.8 µM and 8.53 µM
  TGI: 178 µM and 339 µM
DU-145 prostate
  TGI: 314 µM
SK-OV-3 ovarian
  GI50: 128 µM and 25.8 µM
  TGI: 953 µM and 613 µM
EKVX NSCLC
  GI50: 82.5 µM
  TGI: 210 µM
HCT-116 colon
  GI50: 13.7 µM and 6.53 µM
  TGI: > 1500 µM and 369 µM

## Clc1cccc(N2CCN(CCN3CCc4c([nH]c5ccccc45)C3c3cccnc3)CC2)c1 (configuration not stated)
M14 melanoma
  TGI: > 100 µM
HCC-2998 colon
  TGI: > 76.9 µM
SNB-19 CNS
  TGI: > 100 µM
LOX IMVI melanoma
  TGI: > 93.1 µM
OVCAR-5 ovarian
  TGI: > 92.1 µM
CAKI-1 renal
  TGI: > 100 µM
DU-145 prostate
  TGI: > 31.6 µM
SK-OV-3 ovarian
  TGI: > 100 µM
EKVX NSCLC
  TGI: 99.7 µM
HCT-116 colon
  TGI: > 91.3 µM

## N#C/C(=C\Nc1ccccn1)C(=O)c1ccco1
M14 melanoma
  TGI: > 100 µM
HCC-2998 colon
  TGI: > 100 µM
SNB-19 CNS
  TGI: > 100 µM
LOX IMVI melanoma
  TGI: > 100 µM
OVCAR-5 ovarian
  TGI: > 100 µM
CAKI-1 renal
  TGI: > 100 µM
DU-145 prostate
  TGI: > 100 µM
SK-OV-3 ovarian
  TGI: > 100 µM
EKVX NSCLC
  TGI: > 100 µM
HCT-116 colon
  TGI: > 100 µM

## Clc1ccc(C(c2ccc(Cl)cc2)N2CCNCC2)cc1
M14 melanoma
  TGI: 3.39 µM
HCC-2998 colon
  TGI: 3.05 µM
SNB-19 CNS
  TGI: 21.3 µM
LOX IMVI melanoma
  TGI: 4.53 µM
OVCAR-5 ovarian
  TGI: 18.3 µM
CAKI-1 renal
  TGI: 17.4 µM
DU-145 prostate
  TGI: 7.07 µM
SK-OV-3 ovarian
  TGI: > 44.3 µM
EKVX NSCLC
  TGI: 10.4 µM
HCT-116 colon
  TGI: 3.84 µM

## CC(=O)C1COC(O)C1C (configuration not stated)
M14 melanoma
  TGI: 61.1 µM
SNB-19 CNS
  TGI: > 100 µM
LOX IMVI melanoma
  TGI: 39.4 µM
OVCAR-5 ovarian
  TGI: 59.2 µM
CAKI-1 renal
  TGI: 62.9 µM
DU-145 prostate
  TGI: 70.8 µM
SK-OV-3 ovarian
  TGI: 82.3 µM
EKVX NSCLC
  TGI: > 100 µM
HCT-116 colon
  TGI: 39.6 µM

## O=C1C(Cl)=C(Nc2cccc(O)c2)C(=O)N1Cc1ccc(Cl)cc1
M14 melanoma
  GI50: 4.43 µM
  TGI: 23.2 µM
SNB-19 CNS
  GI50: 2.64 µM
  TGI: 23.5 µM
LOX IMVI melanoma
  GI50: 1.47 µM
  TGI: 6.34 µM
OVCAR-5 ovarian
  GI50: 15.6 µM
  TGI: 31.6 µM
CAKI-1 renal
  GI50: 1.74 µM
  TGI: 10.1 µM
DU-145 prostate
  GI50: 5.48 µM
  TGI: 24.1 µM
SK-OV-3 ovarian
  GI50: 3.7 µM
  TGI: 19.9 µM
EKVX NSCLC
  GI50: 13.6 µM
  TGI: 48.6 µM
HCT-116 colon
  GI50: 3.66 µM
  TGI: 25 µM

## CCOC(=O)NC1=C(N2CC2)C(=O)C(NC(=O)OCC)=C(N2CC2)C1=O
M14 melanoma
  GI50: 4.91 µM and 4.5 µM
  TGI: 25 µM and 23.7 µM and 31.7 µM
HCC-2998 colon
  GI50: 20 µM and 10.3 µM
  TGI: 25 µM and 23.2 µM and 35 µM
SNB-19 CNS
  GI50: 6.66 µM
  TGI: 25 µM and 30.2 µM
LOX IMVI melanoma
  TGI: 17.1 µM and 11.9 µM
OVCAR-5 ovarian
  GI50: 19.9 µM and 7.01 µM
  TGI: 25 µM and 32.6 µM and 35.9 µM
CAKI-1 renal
  GI50: 2.53 µM and 3.42 µM
  TGI: 13.2 µM and 18.3 µM and 23.7 µM
DU-145 prostate
  TGI: 25 µM
SK-OV-3 ovarian
  GI50: 9.93 µM and 8.49 µM
  TGI: 25 µM and 20.3 µM and 31.8 µM
EKVX NSCLC
  GI50: 24.2 µM
  TGI: 25 µM and 16.1 µM
HCT-116 colon
  GI50: 4.59 µM and 4.37 µM
  TGI: 15.1 µM and 9.91 µM and 11.8 µM

## O=c1oc(-c2ccccc2)cc2cccc(O)c12
M14 melanoma
  GI50: > 80.9 µM
  TGI: > 100 µM
SNB-19 CNS
  GI50: 30.6 µM
  TGI: > 100 µM
LOX IMVI melanoma
  GI50: 29.7 µM
  TGI: > 100 µM
OVCAR-5 ovarian
  GI50: 55.3 µM
  TGI: > 100 µM
CAKI-1 renal
  GI50: 37.3 µM
  TGI: > 81.7 µM
DU-145 prostate
  GI50: > 48.7 µM
  TGI: > 100 µM
SK-OV-3 ovarian
  GI50: 26.8 µM
  TGI: 68.6 µM
EKVX NSCLC
  GI50: 4.22 µM
  TGI: > 40.6 µM
HCT-116 colon
  GI50: 19.8 µM
  TGI: 45.2 µM

## CN1C(=O)C(=Cc2cn(Cc3ccccc3)c3ccccc23)C(=O)N(C)C1=O
M14 melanoma
  GI50: 48.7 µM
  TGI: > 100 µM
HCC-2998 colon
  GI50: > 33.7 µM
  TGI: > 70.8 µM
SNB-19 CNS
  GI50: > 100 µM
  TGI: > 100 µM
LOX IMVI melanoma
  GI50: 35.3 µM
  TGI: > 100 µM
OVCAR-5 ovarian
  GI50: 0.234 µM
  TGI: 0.82 µM
CAKI-1 renal
  TGI: > 25.5 µM
DU-145 prostate
  GI50: 87.2 µM
  TGI: > 100 µM
SK-OV-3 ovarian
  GI50: 6.16 µM
  TGI: > 100 µM
EKVX NSCLC
  GI50: 35.8 µM
  TGI: > 100 µM
HCT-116 colon
  GI50: 11.1 µM
  TGI: > 100 µM

## Oc1ccc2ccccc2c1C1NN=C(c2ccccc2)S1 (configuration not stated)
M14 melanoma
  GI50: 0.279 µM
  TGI: 0.819 µM
HCC-2998 colon
  GI50: 0.353 µM
  TGI: 16.6 µM
SNB-19 CNS
  GI50: 0.683 µM
  TGI: > 100 µM
LOX IMVI melanoma
  GI50: 0.327 µM
  TGI: 13 µM
OVCAR-5 ovarian
  GI50: 1.95 µM
  TGI: > 77.5 µM
CAKI-1 renal
  GI50: 0.339 µM
  TGI: 17.8 µM
DU-145 prostate
  GI50: 0.479 µM
  TGI: 37.2 µM
SK-OV-3 ovarian
  GI50: 0.519 µM
  TGI: 20.5 µM
EKVX NSCLC
  GI50: 0.633 µM
  TGI: > 94.7 µM
HCT-116 colon
  GI50: 0.408 µM
  TGI: > 34.4 µM

## OC(C1CO1)C(O)C1CO1 (configuration not stated)
M14 melanoma
  GI50: 28.7 µM
  TGI: 94.6 µM and 165 µM
HCC-2998 colon
  GI50: 60.5 µM
  TGI: 87.9 µM and 138 µM
SNB-19 CNS
  GI50: 107 µM
  TGI: 139 µM and 334 µM
LOX IMVI melanoma
  GI50: 12 µM
  TGI: 78.3 µM and 233 µM
OVCAR-5 ovarian
  GI50: 93.9 µM
  TGI: 137 µM and 237 µM
CAKI-1 renal
  GI50: 15 µM and 5.46 µM
  TGI: 91.5 µM and 158 µM
DU-145 prostate
  GI50: 6.7 µM
  TGI: 109 µM and 154 µM
SK-OV-3 ovarian
  GI50: 5.68 µM
  TGI: 95.2 µM and 186 µM
EKVX NSCLC
  GI50: 175 µM
  TGI: 150 µM and 348 µM
HCT-116 colon
  GI50: 40.2 µM
  TGI: 110 µM and 209 µM
